# Experimental data from the supplement of paper PMC10307832.
# Experiments:
# Experiment in all cases: relative viability (nuclei count vs DMSO), 5 days (fraction); higher = more cells survive
# NCI-H3122 = system: NCI-H3122
# Outline: (§1)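 For relative viability, nuclei counts in treated wells were divided by those in vehicle wells. Lung cancer cell lines had been pin-tool dosed in 1536-well plates the day after seeding and cultured for 5 days, then fixed and stained in one step (final 0.05% Triton X-100, 1% formaldehyde, 1 ug/ml Hoechst) and imaged at 4×. Doses were one drug alone or a fixed anchor-drug dose plus five library-drug doses (not always all listed) in √10 steps, and values are duplicate-plate medians.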
# 201T = system: 201T
# Outline: as §1
# NCI-H647 = system: NCI-H647
# Outline: as §1
# NCI-H23 = system: NCI-H23
# Outline: as §1
# NCI-H1395 = system: NCI-H1395
# Outline: as §1
# HCC-44 = system: HCC-44
# Outline: as §1
# BEN = system: BEN
# Outline: as §1
# NCI-H2087 = system: NCI-H2087
# Outline: as §1
# LOU-NH91 = system: LOU-NH91
# Outline: as §1
# NCI-H441 = system: NCI-H441
# Outline: as §1
# NCI-H2023 = system: NCI-H2023
# Outline: as §1
# NCI-H838 = system: NCI-H838
# Outline: as §1
# NCI-H1993 = system: NCI-H1993
# Outline: as §1
# NCI-H2347 = system: NCI-H2347
# Outline: as §1
# NCI-H596 = system: NCI-H596
# Outline: as §1
# LCLC-103H = system: LCLC-103H
# Outline: as §1
# EMC-BAC-2 = system: EMC-BAC-2
# Outline: as §1
# NCI-H2126 = system: NCI-H2126
# Outline: as §1
# NCI-H1666 = system: NCI-H1666
# Outline: as §1
# NCI-H727 = system: NCI-H727
# Outline: as §1
# NCI-H650 = system: NCI-H650
# Outline: as §1
# HARA = system: HARA
# Outline: as §1
# NCI-H2009 = system: NCI-H2009
# Outline: as §1
smiles,measurement,setting,value
CC1(C)CCC(c2ccc(Cl)cc2)=C(CN2CCN(c3ccc(C(=O)NS(=O)(=O)c4ccc(N[C@H](CCN5CCOCC5)CSc5ccccc5)c(S(=O)(=O)C(F)(F)F)c4)cc3)CC2)C1 [Navitoclax] + O=C(CCCCCCC(=O)Nc1ccccc1)NO [Vorinostat] (partner 1 µM),relative viability,NCI-H3122; first compound 0.005 µM,1.05
same,relative viability,NCI-H3122; first compound 0.01581 µM,0.807
same,relative viability,NCI-H3122; first compound 0.05 µM,1.06
same,relative viability,NCI-H3122; first compound 0.1581 µM,1.02
same,relative viability,NCI-H3122; first compound 0.5 µM,0.839
same,relative viability,201T; first compound 0.005 µM,1.05
same,relative viability,201T; first compound 0.01581 µM,1.12
same,relative viability,201T; first compound 0.05 µM,0.89
same,relative viability,201T; first compound 0.1581 µM,0.937
same,relative viability,201T; first compound 0.5 µM,1.02
same,relative viability,NCI-H647; first compound 0.005 µM,0.536
same,relative viability,NCI-H647; first compound 0.01581 µM,0.52
same,relative viability,NCI-H647; first compound 0.05 µM,0.673
same,relative viability,NCI-H647; first compound 0.1581 µM,0.405
same,relative viability,NCI-H647; first compound 0.5 µM,0.512
same,relative viability,NCI-H23; first compound 0.005 µM,0.594
same,relative viability,NCI-H23; first compound 0.01581 µM,0.468
same,relative viability,NCI-H23; first compound 0.05 µM,0.505
same,relative viability,NCI-H23; first compound 0.1581 µM,0.478
same,relative viability,NCI-H23; first compound 0.5 µM,0.544
same,relative viability,NCI-H1395; first compound 0.005 µM,0.653
same,relative viability,NCI-H1395; first compound 0.01581 µM,0.862
same,relative viability,NCI-H1395; first compound 0.05 µM,0.802
same,relative viability,NCI-H1395; first compound 0.1581 µM,0.682
same,relative viability,NCI-H1395; first compound 0.5 µM,0.659
same,relative viability,HCC-44; first compound 0.005 µM,1.13
same,relative viability,HCC-44; first compound 0.01581 µM,1.07
same,relative viability,HCC-44; first compound 0.05 µM,0.988
same,relative viability,HCC-44; first compound 0.1581 µM,1.12
same,relative viability,HCC-44; first compound 0.5 µM,1.09
same,relative viability,BEN; first compound 0.005 µM,0.617
same,relative viability,BEN; first compound 0.01581 µM,0.658
same,relative viability,BEN; first compound 0.05 µM,0.593
same,relative viability,BEN; first compound 0.1581 µM,0.572
same,relative viability,BEN; first compound 0.5 µM,0.417
same,relative viability,NCI-H2087; first compound 0.005 µM,0.675
same,relative viability,NCI-H2087; first compound 0.01581 µM,0.467
same,relative viability,NCI-H2087; first compound 0.1581 µM,0.853
same,relative viability,NCI-H2087; first compound 0.5 µM,0.848
same,relative viability,LOU-NH91; first compound 0.005 µM,0.956
same,relative viability,LOU-NH91; first compound 0.01581 µM,0.925
same,relative viability,LOU-NH91; first compound 0.05 µM,0.791
same,relative viability,LOU-NH91; first compound 0.1581 µM,0.639
same,relative viability,LOU-NH91; first compound 0.5 µM,0.437
same,relative viability,NCI-H441; first compound 0.005 µM,0.651
same,relative viability,NCI-H441; first compound 0.01581 µM,0.961
same,relative viability,NCI-H441; first compound 0.05 µM,0.982
same,relative viability,NCI-H441; first compound 0.1581 µM,0.694
same,relative viability,NCI-H441; first compound 0.5 µM,0.725
same,relative viability,NCI-H2023; first compound 0.005 µM,0.744
same,relative viability,NCI-H2023; first compound 0.01581 µM,0.76
same,relative viability,NCI-H2023; first compound 0.05 µM,0.659
same,relative viability,NCI-H2023; first compound 0.1581 µM,0.557
same,relative viability,NCI-H2023; first compound 0.5 µM,0.473
same,relative viability,NCI-H838; first compound 0.005 µM,0.678
same,relative viability,NCI-H838; first compound 0.01581 µM,0.73
same,relative viability,NCI-H838; first compound 0.05 µM,0.76
same,relative viability,NCI-H838; first compound 0.1581 µM,0.73
same,relative viability,NCI-H838; first compound 0.5 µM,0.667
same,relative viability,NCI-H1993; first compound 0.005 µM,0.74
same,relative viability,NCI-H1993; first compound 0.01581 µM,0.81
same,relative viability,NCI-H1993; first compound 0.05 µM,1
same,relative viability,NCI-H1993; first compound 0.1581 µM,0.708
same,relative viability,NCI-H1993; first compound 0.5 µM,0.703
same,relative viability,NCI-H2347; first compound 0.005 µM,0.623
same,relative viability,NCI-H2347; first compound 0.01581 µM,0.628
same,relative viability,NCI-H2347; first compound 0.05 µM,0.534
same,relative viability,NCI-H2347; first compound 0.1581 µM,0.61
same,relative viability,NCI-H2347; first compound 0.5 µM,0.542
same,relative viability,NCI-H596; first compound 0.005 µM,0.648
same,relative viability,NCI-H596; first compound 0.01581 µM,0.739
same,relative viability,NCI-H596; first compound 0.05 µM,0.299
same,relative viability,NCI-H596; first compound 0.1581 µM,0.55
same,relative viability,NCI-H596; first compound 0.5 µM,0.496
same,relative viability,LCLC-103H; first compound 0.005 µM,0.73
same,relative viability,LCLC-103H; first compound 0.01581 µM,0.928
same,relative viability,LCLC-103H; first compound 0.05 µM,0.96
same,relative viability,LCLC-103H; first compound 0.1581 µM,0.807
same,relative viability,LCLC-103H; first compound 0.5 µM,0.665
same,relative viability,EMC-BAC-2; first compound 0.005 µM,0.413
same,relative viability,EMC-BAC-2; first compound 0.01581 µM,0.507
same,relative viability,EMC-BAC-2; first compound 0.05 µM,0.548
same,relative viability,EMC-BAC-2; first compound 0.1581 µM,0.422
same,relative viability,EMC-BAC-2; first compound 0.5 µM,0.418
same,relative viability,NCI-H2126; first compound 0.005 µM,0.789
same,relative viability,NCI-H2126; first compound 0.01581 µM,0.875
same,relative viability,NCI-H2126; first compound 0.05 µM,0.795
same,relative viability,NCI-H2126; first compound 0.1581 µM,0.761
same,relative viability,NCI-H2126; first compound 0.5 µM,0.681
same,relative viability,NCI-H1666; first compound 0.005 µM,1
same,relative viability,NCI-H1666; first compound 0.01581 µM,1.04
same,relative viability,NCI-H1666; first compound 0.05 µM,1.03
same,relative viability,NCI-H1666; first compound 0.1581 µM,0.999
same,relative viability,NCI-H1666; first compound 0.5 µM,1.05
same,relative viability,NCI-H727; first compound 0.005 µM,1.28
same,relative viability,NCI-H727; first compound 0.01581 µM,1.34
same,relative viability,NCI-H727; first compound 0.05 µM,0.901
same,relative viability,NCI-H727; first compound 0.1581 µM,1.12
same,relative viability,NCI-H727; first compound 0.5 µM,1.16
same,relative viability,NCI-H650; first compound 0.005 µM,0.503
same,relative viability,NCI-H650; first compound 0.01581 µM,0.448
same,relative viability,NCI-H650; first compound 0.05 µM,0.431
same,relative viability,NCI-H650; first compound 0.1581 µM,0.463
same,relative viability,NCI-H650; first compound 0.5 µM,0.453
same,relative viability,HARA; first compound 0.005 µM,0.536
same,relative viability,HARA; first compound 0.01581 µM,0.629
same,relative viability,HARA; first compound 0.1581 µM,0.521
same,relative viability,HARA; first compound 0.5 µM,0.55
same,relative viability,NCI-H2009; first compound 0.005 µM,0.719
same,relative viability,NCI-H2009; first compound 0.01581 µM,0.88
same,relative viability,NCI-H2009; first compound 0.05 µM,0.759
same,relative viability,NCI-H2009; first compound 0.1581 µM,0.728
same,relative viability,NCI-H2009; first compound 0.5 µM,0.719
